Assay results: paper PMC11995724, “Antibiotic target discovery by integrated phenotypic and activity-based profiling of electrophilic fragments” (Cell chemical biology, 2025)

Assay: in vitro
Settings: human, hek293t cells

Row | SMILES | viability at 48 h, 25 µM [%]
1 | C=CC(=O)NCc1ccc(C(=O)N2CCC(c3ccn[nH]3)CC2)cc1 [3-K08, N-({4-[4-(1H-pyrazol-5-yl)piperidine-1-carbonyl]phenyl}methyl)prop-2-enamide] | 95.2
2 | C=CC(=O)N1CCC(n2ccnn2)CC1 [3-K09, 1-[4-(1H-1,2,3-triazol-1-yl)piperidin-1-yl]prop-2-en-1-one] | 65.2
3 | C=CC(=O)N1CCCN(S(N)(=O)=O)CC1 [3-K10, 4-(prop-2-enoyl)-1,4-diazepane-1-sulfonamide] | 98.5
4 | C=CC(=O)N1CCOC(c2cnn(C)c2)C1 (stereo not shown) [3-K11, 1-[2-(1-methyl-1H-pyrazol-4-yl)morpholin-4-yl]prop-2-en-1-one] | 49.9
5 | C=CC(=O)N1CCCCC1c1noc(C2CC2)n1 (stereo not shown) [3-K12, 1-[2-(5-cyclopropyl-1,2,4-oxadiazol-3-yl)piperidin-1-yl]prop-2-en-1-one] | 105
6 | C=CC(=O)NCC(C)(C)C1(O)CCOC1 (stereo not shown) [3-K13, N-[2-(3-hydroxyoxolan-3-yl)-2-methylpropyl]prop-2-enamide] | 68
7 | C=CC(=O)N1CCCC(O)(CC(N)=O)C1 (stereo not shown) [3-K14, 2-[3-hydroxy-1-(prop-2-enoyl)piperidin-3-yl]acetamide] | 101
8 | C=CC(=O)NCc1cccc(NS(C)(=O)=O)c1 [3-K15, N-[(3-methanesulfonamidophenyl)methyl]prop-2-enamide] | 31.7
9 | C=CC(=O)N(CC)CC(=O)N1CCc2c(cccc2NC(C)=O)C1 [3-K16, N-[2-(5-acetamido-1,2,3,4-tetrahydroisoquinolin-2-yl)-2-oxoethyl]-N-ethylprop-2-enamide] | 90.5
10 | C=CC(=O)N(C)CC(=O)N1CCCCC1c1nc(C)no1 (stereo not shown) [3-K17, N-methyl-N-{2-[2-(3-methyl-1,2,4-oxadiazol-5-yl)piperidin-1-yl]-2-oxoethyl}prop-2-enamide] | 47.9
11 | C=CC(=O)Nc1ccc2oc(CC(C)(C)C)nc2c1 [3-K18, N-[2-(2,2-dimethylpropyl)-1,3-benzoxazol-5-yl]prop-2-enamide] | 82.2
12 | C=CC(=O)N1CCC(c2ccc(OC)c(F)c2)C1 (stereo not shown) [3-K19, 1-[3-(3-fluoro-4-methoxyphenyl)pyrrolidin-1-yl]prop-2-en-1-one] | 48.9
13 | C=CC(=O)NCCCn1cnc2c1CCCC2 [3-K20, N-[3-(4,5,6,7-tetrahydro-1H-1,3-benzodiazol-1-yl)propyl]prop-2-enamide] | 101
14 | C=CC(=O)N(CC)CC(=O)N1CC[S+]([O-])C(C)(C)CC1 (stereo not shown) [3-K21, N-[2-(7,7-dimethyl-1-oxo-1lambda4,4-thiazepan-4-yl)-2-oxoethyl]-N-ethylprop-2-enamide] | 40.1
15 | C=CC(=O)NC1(c2ncon2)CCOCC1 [3-K22, N-[4-(1,2,4-oxadiazol-3-yl)oxan-4-yl]prop-2-enamide] | 66.9
16 | C=CC(=O)N1CCC(C(=O)NCc2ncc(N(C)C)cn2)CC1 [3-L03, N-{[5-(dimethylamino)pyrimidin-2-yl]methyl}-1-(prop-2-enoyl)piperidine-4-carboxamide] | 68.2
17 | C=CC(=O)Nc1cccc(-c2ccon2)c1 [3-L04, N-[3-(1,2-oxazol-3-yl)phenyl]prop-2-enamide] | 70.4
18 | C=CC(=O)N(CC)CC(=O)N1CCN(c2ccsc2C#N)CC1 [3-L05, N-{2-[4-(2-cyanothiophen-3-yl)piperazin-1-yl]-2-oxoethyl}-N-ethylprop-2-enamide] | 62.6
19 | C=CC(=O)NCc1ccc(C(=O)N2CCC[C@H]2C(=O)NC)cc1 [3-L06, (2S)-N-methyl-1-{4-[(prop-2-enamido)methyl]benzoyl}pyrrolidine-2-carboxamide] | 80.6
20 | C=CC(=O)NCC(F)(F)C1(OC)CCC1 [3-L07, N-[2,2-difluoro-2-(1-methoxycyclobutyl)ethyl]prop-2-enamide] | 82.7
21 | C=CC(=O)N(C)Cc1nc2c(cnn2C)c(=O)[nH]1 [3-L08, N-methyl-N-({1-methyl-4-oxo-1H,4H,5H-pyrazolo[3,4-d]pyrimidin-6-yl}methyl)prop-2-enamide] | 70.4
22 | C=CC(=O)NC1(c2nc(C)no2)CC1 [3-L09, N-[1-(3-methyl-1,2,4-oxadiazol-5-yl)cyclopropyl]prop-2-enamide] | 46.8
23 | C=CC(=O)Nc1cnoc1C(C)C [3-L10, N-[5-(propan-2-yl)-1,2-oxazol-4-yl]prop-2-enamide] | 92.6
24 | C=CC(=O)N(C)Cc1cccnc1 [3-L11, N-methyl-N-[(pyridin-3-yl)methyl]prop-2-enamide] | 82
25 | C=CC(=O)N1CCC(C(=O)NCc2cc(=O)n3ccccc3n2)CC1 [3-L12, N-({4-oxo-4H-pyrido[1,2-a]pyrimidin-2-yl}methyl)-1-(prop-2-enoyl)piperidine-4-carboxamide] | 82.7
26 | C=CC(=O)NCC1CCCC1N1CCCS1(=O)=O (stereo not shown) [3-L13, N-{[2-(1,1-dioxo-1lambda6,2-thiazolidin-2-yl)cyclopentyl]methyl}prop-2-enamide] | 78.9

Row | SMILES | viability at 48 h, 25 µM [%]
27 | C=CC(=O)NCc1cc2cc(C)ccc2o1 [3-L14, N-[(5-methyl-1-benzofuran-2-yl)methyl]prop-2-enamide] | 85.4
28 | C=CC(=O)NCc1c(F)cccc1S(=O)(=O)N(C)C [3-L15, N-{[2-(dimethylsulfamoyl)-6-fluorophenyl]methyl}prop-2-enamide] | 83.2
29 | C=CC(=O)N1CC(C)c2ccc(S(N)(=O)=O)cc21 (stereo not shown) [3-L16, 3-methyl-1-(prop-2-enoyl)-2,3-dihydro-1H-indole-6-sulfonamide] | 1.43
30 | C=CC(=O)NC1CC(C)Cc2cc(OC)ccc21 (stereo not shown) [3-L17, N-(6-methoxy-3-methyl-1,2,3,4-tetrahydronaphthalen-1-yl)prop-2-enamide] | 61.6
31 | C=CC(=O)Nc1ccc(C2=NNC(=O)CO2)cc1 [3-L18, N-[4-(5-oxo-5,6-dihydro-4H-1,3,4-oxadiazin-2-yl)phenyl]prop-2-enamide] | 67.1
32 | C=CC(=O)NCC(OC)C1CCOC1 (stereo not shown) [3-L19, N-[2-methoxy-2-(oxolan-3-yl)ethyl]prop-2-enamide] | 85.8
33 | C=CC(=O)NCc1cn2c(n1)CCCC2 [3-L20, N-({5H,6H,7H,8H-imidazo[1,2-a]pyridin-2-yl}methyl)prop-2-enamide] | 103
34 | C=CC(=O)NCc1ccccc1N1CCCC(C(N)=O)C1 (stereo not shown) [3-L21, 1-{2-[(prop-2-enamido)methyl]phenyl}piperidine-3-carboxamide] | 68.9
35 | C=CC(=O)NCc1ccc(C(=O)N2CCC[C@@H]2C(N)=O)cc1 [3-L22, (2R)-1-{4-[(prop-2-enamido)methyl]benzoyl}pyrrolidine-2-carboxamide] | 81.9
36 | C=CC(=O)N1CCn2cccc2C1c1ccncc1 (stereo not shown) [3-M03, 1-[1-(pyridin-4-yl)-1H,2H,3H,4H-pyrrolo[1,2-a]pyrazin-2-yl]prop-2-en-1-one] | 45.2
37 | C=CC(=O)N1CCC(C(=O)NC2(c3ccc(F)cc3F)CCC2)CC1 [3-M04, N-[1-(2,4-difluorophenyl)cyclobutyl]-1-(prop-2-enoyl)piperidine-4-carboxamide] | 97.5
38 | C=CC(=O)N1CCC(C(=O)NC(C)CC2CC2)CC1 (stereo not shown) [3-M05, N-(1-cyclopropylpropan-2-yl)-1-(prop-2-enoyl)piperidine-4-carboxamide] | 53.3
39 | C=CC(=O)N1CCC(C(=O)NCC(O)c2cccc(Cl)c2)CC1 (stereo not shown) [3-M06, N-[2-(3-chlorophenyl)-2-hydroxyethyl]-1-(prop-2-enoyl)piperidine-4-carboxamide] | 98.1
40 | C=CC(=O)NCC1CCc2cccnc21 (stereo not shown) [3-M07, N-({5H,6H,7H-cyclopenta[b]pyridin-7-yl}methyl)prop-2-enamide] | 47.8
41 | C=CC(=O)Nc1cccc(S(=O)(=O)C2CCOCC2)c1 [3-M08, N-[3-(oxane-4-sulfonyl)phenyl]prop-2-enamide] | 96.8
42 | C=CC(=O)N1CCCC1c1cn(C)nc1C (stereo not shown) [3-M09, 1-[2-(1,3-dimethyl-1H-pyrazol-4-yl)pyrrolidin-1-yl]prop-2-en-1-one] | 50.9
43 | C=CC(=O)N1CCCn2nc(CO)cc2C1 [3-M10, 1-[2-(hydroxymethyl)-4H,5H,6H,7H,8H-pyrazolo[1,5-a][1,4]diazepin-5-yl]prop-2-en-1-one] | 109
44 | C=CC(=O)N1CCN(C(C)c2nc(C)no2)CC1 (stereo not shown) [3-M11, 1-{4-[1-(3-methyl-1,2,4-oxadiazol-5-yl)ethyl]piperazin-1-yl}prop-2-en-1-one] | 61
45 | C=CC(=O)N1CCCC(n2cc(C)cn2)C1 (stereo not shown) [3-M12, 1-[3-(4-methyl-1H-pyrazol-1-yl)piperidin-1-yl]prop-2-en-1-one] | 94.4
46 | C=CC(=O)NCCn1nc(C)cc1C [3-M13, N-[2-(3,5-dimethyl-1H-pyrazol-1-yl)ethyl]prop-2-enamide] | 56.9
47 | C=CC(=O)N1CCC(C(=O)NC(C)(C)CSC)CC1 [3-M14, N-[2-methyl-1-(methylsulfanyl)propan-2-yl]-1-(prop-2-enoyl)piperidine-4-carboxamide] | 153
48 | C=CC(=O)N1CCCn2ncc(C3CC3)c21 [3-M15, 1-{3-cyclopropyl-4H,5H,6H,7H-pyrazolo[1,5-a]pyrimidin-4-yl}prop-2-en-1-one] | 1.25
49 | C=CC(=O)N1CCC(C(=O)Oc2ccc(NC(C)=O)cc2)CC1 [3-M16, 4-acetamidophenyl 1-(prop-2-enoyl)piperidine-4-carboxylate] | 93.3
50 | C=CC(=O)NCCC(=O)N1CCC(c2ncccn2)CC1 [3-M17, N-{3-oxo-3-[4-(pyrimidin-2-yl)piperidin-1-yl]propyl}prop-2-enamide] | 62.4
51 | C=CC(=O)Nc1cnn(CCN2CCCC2=O)c1 [3-M18, N-{1-[2-(2-oxopyrrolidin-1-yl)ethyl]-1H-pyrazol-4-yl}prop-2-enamide] | 90
52 | C=CC(=O)N(CC)CC(=O)Nc1ccc2c(c1)nc1n2CCCCC1 [3-M19, N-[({1,8-diazatricyclo[7.5.0.0,2,7]tetradeca-2,4,6,8-tetraen-5-yl}carbamoyl)methyl]-N-ethylprop-2-enamide] | 35.8
